Drawing on PubChem BioAssay AID488967 (The Scripps Research Institute Molecular Screening Center, 2010), this text covers inhibition for 32 molecules.

As usually defined, the inhibition is the drop in the measured response relative to a control, in per cent.

Each structure is given as a SMILES string. Activity calls are given as the source filed them. The rule behind the calls is not given here.

For the assay, the system named is SARS coronavirus 3C-like protease (3CLpro, nsp5). Put plainly: blockers of SARS 3CLpro activity – biochemical, fluorescence, assay provider results, late-stage follow-up (AID 488967). The settings on record: recombinant 3CLpro, fluorogenic peptide cleavage; at 100 µM; active compounds read high.
As to `O=C(Nc1ccc(N(Cc2ccsc2)C(=O)Cn2nnc3ccccc32)cc1)C1CCCCC1`, the inhibition is 22.1% (inactive).
The result for `CC(C)(C)NC(=O)C(c1cccc(F)c1)N(C(=O)Cn1nnc2ccccc21)C12CC3CC(CC(C3)C1)C2` (configuration not stated) reads 10.6% (inactive).
Consider `CC(C)(C)NC(=O)C(c1cccnc1)N(C(=O)c1ccc(Cl)o1)c1ccc(C(C)(C)C)cc1` (configuration not stated), for which the inhibition was 89.6%.
With `CC(C)(C)NC(=O)[C@H](c1cccnc1)N(C(=O)c1ccco1)c1ccc(C(C)(C)C)cc1`, the inhibition is 25% (inactive).
The figure for `CC(C)C(=O)Nc1ccc(N(Cc2ccsc2)C(=O)Cn2nnc3ccccc32)cc1` is 83.6%; for `O=C(Nc1ccc(N(Cc2ccsc2)C(=O)Cn2nnc3ccccc32)cc1)C1CC1` it is 82.8%; for `CC(C)(C)NC(=O)C(c1ccsc1)N(C(=O)Cn1nnc2ccccc21)c1ccc(NC(=O)C(C)(C)C)cc1` (configuration not stated) it is 77.4%.
The result for `CC(C)(C)NC(=O)C(c1ccsc1)N(C(=O)Cn1nnc2ccccc21)c1ccc(NC(=O)C2CCCCC2)cc1` (configuration not stated) reads 84.9%; that for `O=C(NCc1ccccc1)C(c1cccc(F)c1)N(C(=O)Cn1nnc2ccccc21)C1CC2CCC1C2` (configuration not stated), 42.5% (inactive); that for `CC(C)(C)NC(=O)C(c1cccc(F)c1)N(C(=O)Cn1nnc2ccccc21)C1CC2CCC1C2` (configuration not stated), 32.7% (inactive).
The figure for `CC(C)(C)NC(=O)C(c1ccsc1)N(C(=O)Cn1nnc2ccccc21)c1ccc(NC(=O)C2CCC2)cc1` (configuration not stated) is 22.7% (inactive); for `CC(C)(C)NC(=O)C(c1cccnc1)N(C(=O)c1ccc[nH]1)c1ccc(C(C)(C)C)cc1` (configuration not stated) it is 18.6% (inactive).
With `CC(C)COC(=O)Nc1ccc(N(Cc2ccsc2)C(=O)Cn2nnc3ccccc32)cc1`, the inhibition was 10.3% (inactive).
Consider `CCC(C)c1ccc(N(C(=O)c2ccco2)[C@H](C(=O)NC(C)(C)C)c2cccnc2)cc1` (some centres not stated), for which the inhibition was 93.1%.
The figure for `CCC(C)c1ccc(N(C(=O)c2ccco2)[C@@H](C(=O)NC(C)(C)C)c2cccnc2)cc1` (some centres not stated) is -3.8% (inactive); for `CC(C)(C)NC(=O)C(c1ccsc1)N(C(=O)Cn1nnc2ccccc21)c1ccc(NC(=O)c2ccno2)cc1` (configuration not stated) it is 59.4%.
The result for `CC(C)(C)NC(=O)C(c1cncnc1)N(C(=O)c1cnc[nH]1)c1ccc(C(C)(C)C)cc1` (configuration not stated) reads 66.8%; that for `CC(=O)Nc1ccc(N(C(=O)Cn2nnc3ccccc32)C(C(=O)NC(C)(C)C)c2cccc(F)c2)cc1` (configuration not stated), 90.2%; that for `CC(C)COC(=O)Nc1ccc(N(C(=O)Cn2nnc3ccccc32)C(C(=O)NC(C)(C)C)c2ccsc2)cc1` (configuration not stated), 0.9% (inactive).
Take `CC(C)(C)C(=O)Nc1ccc(N(Cc2ccsc2)C(=O)Cn2nnc3ccccc32)cc1`: the inhibition is 86.3%.
For the molecule `CC(C)(C)NC(=O)C(c1ccsc1)N(C(=O)Cn1nnc2ccccc21)c1ccc(NC(=O)C2CC2)cc1` (configuration not stated), the inhibition is 85.7%.
Turning to `CC(C)(C)NC(=O)C(c1cccnc1)N(C(=O)c1ncco1)c1ccc(C(C)(C)C)cc1` (configuration not stated), the inhibition was 51.6%.
Regarding `O=C(Nc1ccc(N(Cc2ccsc2)C(=O)Cn2nnc3ccccc32)cc1)C1CCC1`, the inhibition was 85.7%.
The result for `CC(C)(C)NC(=O)C(c1ccsc1)N(C(=O)Cn1nnc2ccccc21)c1ccc(NC(=O)c2cccs2)cc1` (configuration not stated) reads 14.6% (inactive); that for `O=C(Nc1ccc(N(Cc2ccsc2)C(=O)Cn2nnc3ccccc32)cc1)c1ccccc1`, 18.2% (inactive).
The result for `CC(C)(C)NC(=O)[C@@H](c1cccnc1)N(C(=O)c1ccco1)c1ccc(C(C)(C)C)cc1` reads 98.8%; that for `CC(=O)Nc1ccc(N(C(=O)Cn2nnc3ccccc32)C(C(=O)NCc2ccccc2)c2cccc(F)c2)cc1` (configuration not stated), 84.7%.
The figure for `CC(C)(C)NC(=O)C(c1cncnc1)N(C(=O)c1cnco1)c1ccc(C(C)(C)C)cc1` (configuration not stated) is 36.2% (inactive); for `O=C(Nc1ccc(N(Cc2ccsc2)C(=O)Cn2nnc3ccccc32)cc1)c1cccs1` it is 32.9% (inactive); for `O=C(NCc1ccccc1)C(c1cccc(F)c1)N(C(=O)Cn1nnc2ccccc21)C12CC3CC(CC(C3)C1)C2` (configuration not stated) it is 11.1% (inactive).
Consider `CC(C)(C)NC(=O)C(c1cccnc1)N(C(=O)Cc1cnc[nH]1)c1ccc(C(C)(C)C)cc1` (configuration not stated), for which the inhibition was 15.7% (inactive).
The figure for `CC(C)(C)NC(=O)C(c1ccsc1)N(C(=O)Cn1nnc2ccccc21)c1ccc(NC(=O)c2ccccc2)cc1` (configuration not stated) is -7% (inactive).
